From patent US8741338B2, “Targeted delivery to human diseases and disorders” (Universidade de Coimbra, priority 2008, dated 2014)

Key:
[1] = test system: HMEC-1 cells; assay: MTT proliferation assay, cytotoxicity of DXR formulations; assay type: cell-based; conditions: Homo sapiens, total 96 h
Experimental: (§1) In vitro cytotoxicity of free doxorubicin (DXR) and DXR-containing liposomes was determined for […] and HMEC-1 cells using the MTT (3-(4,5-Dimethylthiazol-2-yl)-2,5-diphenyltetrazolium bromide) proliferation assay (Mosmann, 1983). Briefly, cells were plated in 96-well plates at a density of 8,000 cells per well and incubated with free DXR, non-targeted pH-sensitive (or non-pH-sensitve) liposomes containing DXR or targeted pH-sensitive (or non-pH-sensitve) liposomes containing DXR. Additional controls included free peptide and empty targeted liposomes. Cells were incubated for 1, 3, 24 and 48 h at 37° C. in an atmosphere of 95% humidity and 5% CO2. At the end of the incubation time, cells were gently washed twice with cold PBS to remove DXR and maintained in fresh medium for a total of 96 h. After incubation, the medium was replaced by a solution of 0.5 mg/ml MTT and the cells were further incubated for 4 h at 37° C. in an atmosphere of 95% humidity and 5% CO2. Crystals were dissolved in acidic isopropanol and absorbance in each well was read at 570 nm in a microplate reader (Multiscan EX—Thermo Electron Corporation). IC50 of DXR mediated by the different formulations was determined from the dose/response curves.

[2] = test system: MDA-MB-435S cells; assay: as above; assay type: cell-based; conditions: Homo sapiens, total 96 h
Experimental: as §1

SMILES: COc1cccc2c1C(=O)c1c(O)c3c(c(O)c1C2=O)C[C@@](O)(C(=O)CO)C[C@@H]3O[C@H]1C[C@H](N)[C@H](O)[C@H](C)O1 [DXR, Doxorubicin]
- IC50 ([1]; HMEC-1, HMEC-1, 1 h incubation with drug): 434 ± 30 nM
- IC50 ([1]; HMEC-1, HMEC-1, 3 h incubation with drug): 401 ± 59 nM
- IC50 ([1]; HMEC-1, HMEC-1, 24 h incubation with drug): 72 ± 10 nM
- IC50 ([1]; HMEC-1, HMEC-1, 48 h incubation with drug): 58 ± 8 nM
- IC50 ([2]; 1 h incubation with drug): 1610 ± 460 nM
- IC50 ([2]; 3 h incubation with drug): 1450 ± 270 nM
- IC50 ([2]; 24 h incubation with drug): 232 ± 45 nM
- IC50 ([2]; 48 h incubation with drug): 113 ± 78 nM
